Earlier results as cited in patent publication US9555113B2, “Compositions with a rheological modifier to reduce dissolution variability” (Durect Corporation, priority 2013, dated 2017).
Where two headings read alike, the source gives them in different places.

In the case of Sucrose Acetate Isobutyrate [SAIB], the viscosity (pure SAIB at 80° C.) is listed as “approximately 600 cP” and the viscosity (pure SAIB at ambient temperature (RT)) is listed as “approximately 2,000,000 cP”.
